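In this assay, cells in 96-well plates receive the compound at five concentrations for 48 hours. Endpoints are linearly interpolated between the surrounding concentrations. Here, GI50 denotes the concentration required for 50% inhibition of growth. The concentration for full growth arrest is given as TGI.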
Columns and labels:
Assay in all cases: growth of human tumour cells (NCI), 48 h
786-0 renal = test system: 786-0 renal
A498 renal = test system: A498 renal
A549 NSCLC = test system: A549 NSCLC
ACHN renal = test system: ACHN renal
BT-549 breast = test system: BT-549 breast
CAKI-1 renal = test system: CAKI-1 renal
CCRF-CEM leukemia = test system: CCRF-CEM leukemia
COLO 205 colon = test system: COLO 205 colon
DU-145 prostate = test system: DU-145 prostate
EKVX NSCLC = test system: EKVX NSCLC
HCC-2998 colon = test system: HCC-2998 colon
HCT-116 colon = test system: HCT-116 colon
HCT-15 colon = test system: HCT-15 colon
HOP-62 NSCLC = test system: HOP-62 NSCLC
HOP-92 NSCLC = test system: HOP-92 NSCLC
HS 578T breast = test system: HS 578T breast
HT29 colon = test system: HT29 colon
IGROV1 ovarian = test system: IGROV1 ovarian
K-562 leukemia = test system: K-562 leukemia
KM12 colon = test system: KM12 colon
LOX IMVI melanoma = test system: LOX IMVI melanoma
M14 melanoma = test system: M14 melanoma
MALME-3M melanoma = test system: MALME-3M melanoma
MCF7 breast = test system: MCF7 breast
MDA-MB-231 breast = test system: MDA-MB-231 breast
MDA-MB-435 = test system: MDA-MB-435
MOLT-4 leukemia = test system: MOLT-4 leukemia
NCI-H226 lung = test system: NCI-H226 lung
NCI-H23 lung = test system: NCI-H23 lung
NCI-H460 lung = test system: NCI-H460 lung
NCI-H522 lung = test system: NCI-H522 lung
NCI/ADR-RES ovarian = test system: NCI/ADR-RES ovarian
OVCAR-3 ovarian = test system: OVCAR-3 ovarian
OVCAR-4 ovarian = test system: OVCAR-4 ovarian
OVCAR-5 ovarian = test system: OVCAR-5 ovarian
OVCAR-8 ovarian = test system: OVCAR-8 ovarian
PC-3 prostate = test system: PC-3 prostate
RPMI-8226 leukemia = test system: RPMI-8226 leukemia
RXF 393 renal = test system: RXF 393 renal
SF-268 CNS = test system: SF-268 CNS
SF-295 CNS = test system: SF-295 CNS
SK-MEL-2 melanoma = test system: SK-MEL-2 melanoma
SK-MEL-28 melanoma = test system: SK-MEL-28 melanoma
SK-MEL-5 melanoma = test system: SK-MEL-5 melanoma
SN12C renal = test system: SN12C renal
SNB-19 CNS = test system: SNB-19 CNS
SNB-75 CNS = test system: SNB-75 CNS
SR leukemia = test system: SR leukemia
SW-620 colon = test system: SW-620 colon
T-47D breast = test system: T-47D breast
TK-10 renal = test system: TK-10 renal
U251 CNS = test system: U251 CNS
UACC-257 melanoma = test system: UACC-257 melanoma
UACC-62 melanoma = test system: UACC-62 melanoma
UO-31 renal = test system: UO-31 renal

Compound COc1ccc(S(=O)(=O)NC2=NCCN2C(=S)SN2CCn3c2nsc3=S)cc1 has a GI50 (786-0 renal) of 20.2 µM, a TGI (786-0 renal) of 35.4 µM and a GI50 (A498 renal) of 19.9 µM. The TGI (A498 renal) was 51.1 µM, the GI50 (A549 NSCLC) was 23.4 µM and the TGI (A549 NSCLC) was 79.4 µM. The GI50 (ACHN renal) was 12.9 µM, the TGI (ACHN renal) was 26 µM and the GI50 (BT-549 breast) was 10.4 µM. The TGI (BT-549 breast) was 23.5 µM, the GI50 (CAKI-1 renal) was 17.9 µM and the TGI (CAKI-1 renal) was 62.8 µM. The GI50 (CCRF-CEM leukemia) was 7.95 µM, the TGI (CCRF-CEM leukemia) was 32.4 µM and the GI50 (COLO 205 colon) was 11 µM. The TGI (COLO 205 colon) was 27.4 µM, the GI50 (DU-145 prostate) was 13.5 µM and the TGI (DU-145 prostate) was 31.9 µM. The GI50 (EKVX NSCLC) was 15.8 µM, the TGI (EKVX NSCLC) was 30.6 µM and the GI50 (HCC-2998 colon) was 21.4 µM. It also gave a TGI (HCC-2998 colon) of 37.9 µM, a GI50 (HCT-116 colon) of 14.4 µM and a TGI (HCT-116 colon) of 27.9 µM. The GI50 (HCT-15 colon) was 20.8 µM, the TGI (HCT-15 colon) was 58.9 µM and the GI50 (HOP-62 NSCLC) was 18.9 µM. It also gave a TGI (HOP-62 NSCLC) of 39.2 µM, a GI50 (HOP-92 NSCLC) of 16.9 µM and a TGI (HOP-92 NSCLC) of 35.4 µM. It also gave a GI50 (HS 578T breast) of 20.8 µM, a TGI (HS 578T breast) of 54.2 µM and a GI50 (HT29 colon) of 32.4 µM. The TGI (HT29 colon) was > 100 µM, the GI50 (IGROV1 ovarian) was 30.6 µM and the TGI (IGROV1 ovarian) was > 100 µM. For the same compound, the GI50 (K-562 leukemia) was 28.1 µM, the TGI (K-562 leukemia) was > 100 µM and the GI50 (KM12 colon) was 18.7 µM. For the same compound, the TGI (KM12 colon) was 37.7 µM, the GI50 (LOX IMVI melanoma) was 15.5 µM and the TGI (LOX IMVI melanoma) was 33.1 µM. It also gave a GI50 (M14 melanoma) of 14.9 µM, a TGI (M14 melanoma) of 31 µM and a GI50 (MALME-3M melanoma) of 9.1 µM. For the same compound, the TGI (MALME-3M melanoma) was 24.9 µM, the GI50 (MCF7 breast) was 12.4 µM and the TGI (MCF7 breast) was 27.2 µM. The GI50 (MDA-MB-231 breast) was 15 µM, the TGI (MDA-MB-231 breast) was 36.9 µM and the GI50 (MDA-MB-435) was 14.8 µM. The TGI (MDA-MB-435) was 43.9 µM, the GI50 (MOLT-4 leukemia) was 29.4 µM and the TGI (MOLT-4 leukemia) was > 100 µM. The GI50 (NCI-H226 lung) was 15.6 µM, the TGI (NCI-H226 lung) was 33.2 µM and the GI50 (NCI-H23 lung) was 22.9 µM. The TGI (NCI-H23 lung) was 55.7 µM, the GI50 (NCI-H460 lung) was 17.1 µM and the TGI (NCI-H460 lung) was 44.2 µM. The GI50 (NCI-H522 lung) was 9.62 µM, the TGI (NCI-H522 lung) was 35 µM and the GI50 (NCI/ADR-RES ovarian) was 32.5 µM. For the same compound, the TGI (NCI/ADR-RES ovarian) was > 100 µM, the GI50 (OVCAR-3 ovarian) was 15.5 µM and the TGI (OVCAR-3 ovarian) was 37.4 µM. For the same compound, the GI50 (OVCAR-4 ovarian) was 18 µM, the TGI (OVCAR-4 ovarian) was 44.7 µM and the GI50 (OVCAR-5 ovarian) was 17.3 µM. The TGI (OVCAR-5 ovarian) was 33.3 µM, the GI50 (OVCAR-8 ovarian) was 27.3 µM and the TGI (OVCAR-8 ovarian) was > 100 µM. The GI50 (PC-3 prostate) was 17.5 µM, the TGI (PC-3 prostate) was 40.1 µM and the GI50 (RPMI-8226 leukemia) was 14 µM. For the same compound, the TGI (RPMI-8226 leukemia) was 63.1 µM, the GI50 (RXF 393 renal) was 4.11 µM and the TGI (RXF 393 renal) was 22.1 µM. The GI50 (SF-268 CNS) was 18 µM, the TGI (SF-268 CNS) was 37.8 µM and the GI50 (SF-295 CNS) was 20.8 µM. The TGI (SF-295 CNS) was 53.6 µM, the GI50 (SK-MEL-2 melanoma) was 17.6 µM and the TGI (SK-MEL-2 melanoma) was 51.3 µM. For the same compound, the GI50 (SK-MEL-28 melanoma) was 21.1 µM, the TGI (SK-MEL-28 melanoma) was 65.1 µM and the GI50 (SK-MEL-5 melanoma) was 17.8 µM. It also gave a TGI (SK-MEL-5 melanoma) of 31.7 µM, a GI50 (SN12C renal) of 18.2 µM and a TGI (SN12C renal) of 40 µM. The GI50 (SNB-19 CNS) was 32.9 µM, the TGI (SNB-19 CNS) was > 100 µM and the GI50 (SNB-75 CNS) was 19.5 µM. For the same compound, the TGI (SNB-75 CNS) was 42.5 µM, the GI50 (SR leukemia) was 17 µM and the TGI (SR leukemia) was > 100 µM. The GI50 (SW-620 colon) was 14.1 µM, the TGI (SW-620 colon) was 27.8 µM and the GI50 (T-47D breast) was 18.3 µM. It also gave a TGI (T-47D breast) of 49.1 µM, a GI50 (TK-10 renal) of 15.9 µM and a TGI (TK-10 renal) of 30.2 µM. For the same compound, the GI50 (U251 CNS) was 18.8 µM, the TGI (U251 CNS) was 40.5 µM and the GI50 (UACC-257 melanoma) was 16.8 µM. For the same compound, the TGI (UACC-257 melanoma) was 50.2 µM, the GI50 (UACC-62 melanoma) was 12.2 µM and the TGI (UACC-62 melanoma) was 27.4 µM. It also gave a GI50 (UO-31 renal) of 1.61 µM and a TGI (UO-31 renal) of 3.41 µM.

— PubChem BioAssay (NCI)
